Consider 23 compounds from patent US20240109900A1, “AZABICYCLIC SHP2 INHIBITORS” (IRBM S.P.A., priority 2021, published 2024).

Assay [1] deals with SHP-2 enzyme (Met1-Leu525) (Homo sapiens (Human), UniProt Q06124). As to the kind of experiment: SHP2 inhibition enzymatic assay. The class given is biochemical. As to conditions: 0.5 nM SHP-2 activated by 500 nM IRS1 peptide, 75 μM DiFMUP substrate; read-out: SHP2wt-IC50. An outline of the steps:
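SHP-2 (Met1-Leu525), 0.5 nM, activated with 500 nM IRS1 bis-phosphopeptide, preincubated 30 min with compounds in HEPES pH 7.2 buffer with 5 mM DTT. 75 μM DiFMUP added for 30 min at room temperature, stopped with bpV; fluorescence read. IC50 from four-parameter logistic fit of % inhibition.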

Assay [2] relates to ERK phosphorylation in KYSE-520 cells. Put plainly: Phospho-ERK cellular assay. It counts as cell-based. As to conditions: KYSE-520 cells, 2 h at 37° C., phospho-ERK1/2 (Thr202/Tyr204) TR-FRET, read-out: PERK IC50. An outline of the steps:
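TR-FRET read-out of ERK1/2 Thr202/Tyr204 phosphorylation was taken after overnight antibody incubation at room temperature. Before that, KYSE-520 cells were treated 2 h at 37 °C with compound dilutions and lysed 30 min. Percent inhibition relative to vehicle and cell-free wells was fitted four-parametrically to give IC50.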

pIC50: −log10 of the molar value. Like-named read-outs stand apart in the source and are kept apart here. Some results are limits rather than exact numbers.

Sequence of SHP-2 enzyme (Met1-Leu525) (Q06124 1-525): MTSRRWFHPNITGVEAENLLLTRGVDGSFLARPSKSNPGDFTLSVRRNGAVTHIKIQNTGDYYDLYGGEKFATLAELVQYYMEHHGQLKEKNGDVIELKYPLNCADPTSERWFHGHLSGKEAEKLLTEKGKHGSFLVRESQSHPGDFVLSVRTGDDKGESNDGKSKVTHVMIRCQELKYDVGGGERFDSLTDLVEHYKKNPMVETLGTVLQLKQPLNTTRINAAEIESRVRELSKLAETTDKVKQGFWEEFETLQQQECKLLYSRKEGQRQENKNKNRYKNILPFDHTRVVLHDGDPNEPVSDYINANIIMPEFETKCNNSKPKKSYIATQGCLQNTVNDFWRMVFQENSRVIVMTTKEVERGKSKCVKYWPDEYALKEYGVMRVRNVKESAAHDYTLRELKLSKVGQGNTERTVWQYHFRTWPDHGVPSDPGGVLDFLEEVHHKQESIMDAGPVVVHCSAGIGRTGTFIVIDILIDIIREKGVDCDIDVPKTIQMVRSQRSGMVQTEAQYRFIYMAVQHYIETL

Regarding `Cn1c(=O)ccc2c(-c3n[nH]c4nc(N5CC[C@@H]6[C@H](C5)[C@@]6(CN)c5ccccc5F)cnc34)cccc21` [Example 272, 5-(6-((1S,6R,7R)-7-(aminomethyl)-7-(2-fluorophenyl)-3-azabicyclo[4.1.0]heptan-3-yl)-1H-pyrazolo[3,4-b]pyrazin-3-yl)-1-methylquinolin-2(1H)-one], the negative-log IC50 (pIC50) in assay [1] is above 6.30; in assay [2] (Homo sapiens, KYSE-520, 2 h) it was above 6.00.
Regarding `Cc1csc([C@@]2(CN)[C@@H]3CN(c4cnc5c(-c6ccc7nnsc7c6Cl)n[nH]c5n4)C[C@@H]32)n1` [Example 479], the pIC50 in assay [1] was above 6.30; in assay [2], above 6.00.
Consider `NC[C@]1(c2ccccc2F)[C@@H]2CCN(c3cnc4c(-c5ccc6nccnc6c5Cl)n[nH]c4n3)C[C@@H]21` [Example 167, ((1S,6R,7R)-3-(3-(5-chloroquinoxalin-6-yl)-1H-pyrazolo[3,4-b]pyrazin-6-yl)-7-(2-fluorophenyl)-3-azabicyclo[4.1.0]heptan-7-yl)methanamine], for which the pIC50 in assay [1] was above 6.30; in assay [2] (Homo sapiens, KYSE-520, 2 h), above 6.00.
The corresponding values for `Cc1cc(C2(CN)C3CCN(c4nc5[nH]nc(-c6ccnc(N)c6Cl)c5nc4CO)CC32)no1` (stereo not shown) [Example 58, (3-(2-amino-3-chloropyridin-4-yl)-6-(7-(aminomethyl)-7-(5-methylisoxazol-3-yl)-3-azabicyclo[4.1.0]heptan-3-yl)-1H-pyrazolo[3,4-b]pyrazin-5-yl)methanol] are above 6.30 and below 5.30.
In the same order, the values of `Cc1csc([C@@]2(CN)[C@@H]3CN(c4cnc5c(-c6ccc(F)c7ncccc67)n[nH]c5n4)C[C@@H]32)n1` [Example 213, ((1R,5S,6r)-3-(3-(8-fluoroquinolin-5-yl)-1H-pyrazolo[3,4-b]pyrazin-6-yl)-6-(4-methylthiazol-2-yl)-3-azabicyclo[3.1.0]hexan-6-yl)methanamine] are above 6.30 and above 6.00.
The corresponding values for `NC[C@]1(c2ccccc2F)[C@@H]2CCN(c3cnc4c(-c5ccc(F)c(O)c5F)n[nH]c4n3)C[C@@H]21` [Example 355, 3-(6-((1S,6R,7R)-7-(aminomethyl)-7-(2-fluorophenyl)-3-azabicyclo[4.1.0]heptan-3-yl)-1H-pyrazolo[3,4-b]pyrazin-3-yl)-2,6-difluorophenol] are above 6.30 and above 6.00.
`Cc1csc(C2(CN)[C@@H]3CN(c4cnc5c(-c6ccc(C(N)=O)c7ncccc67)n[nH]c5n4)C[C@@H]32)n1` (stereo partly shown) [Example 504]: the pIC50 was above 6.30 in assay [1] and above 6.00 in assay [2].
In the case of `Cc1cc([C@@]2(CN)[C@@H]3CCN(c4cnc5c(-c6ccc7nn(C)cc7c6C)n[nH]c5n4)C[C@@H]32)no1` [Example 127, ((1S,6R,7S)-3-(3-(2,4-dimethyl-2H-indazol-5-yl)-1H-pyrazolo[3,4-b]pyrazin-6-yl)-7-(5-methylisoxazol-3-yl)-3-azabicyclo[4.1.0]heptan-7-yl)methanamine], the pIC50 in assay [1] is above 6.30; in assay [2] (Homo sapiens, KYSE-520, 2 h), above 6.00.
In the same order, the values of `NC[C@]1(c2ccccc2F)[C@@H]2CCN(c3cnc4c(-c5ccnc(N)c5Cl)n[nH]c4n3)C[C@@H]21` [Example 105, 4-(6-((1S,6R,7R)-7-(aminomethyl)-7-(2-fluorophenyl)-3-azabicyclo[4.1.0]heptan-3-yl)-1H-pyrazolo[3,4-b]pyrazin-3-yl)-3-chloropyridin-2-amine] are above 6.30 and above 6.00.
The corresponding values for `Cc1csc(C2(CN)C3CCN(c4cnc5c(-c6cccc(Cl)c6)n[nH]c5n4)CC32)n1` (stereo not shown) [Example 85, (3-(3-(3-chlorophenyl)-1H-pyrazolo[3,4-b]pyrazin-6-yl)-7-(4-methylthiazol-2-yl)-3-azabicyclo[4.1.0]heptan-7-yl)methanamine] are above 6.30 and above 6.00.
In the same order, the values of `CN1C(=O)C(F)(F)c2c1ccc(-c1n[nH]c3nc(N4CC[C@@H]5[C@H](C4)[C@@]5(CN)c4ccccc4F)cnc13)c2Cl` [Example 362, 5-(6-((1S,6R,7R)-7-(aminomethyl)-7-(2-fluorophenyl)-3-azabicyclo[4.1.0]heptan-3-yl)-1H-pyrazolo[3,4-b]pyrazin-3-yl)-4-chloro-3,3-difluoro-1-methylindolin-2-one] are above 6.30 and above 6.00.
For `NC[C@]1(c2ccccc2F)[C@@H]2CCN(c3cnc4c(-c5ccn6nccc6c5Cl)n[nH]c4n3)C[C@@H]21` [Example 438, ((1S,6R,7R)-3-(3-(4-chloropyrazolo[1,5-a]pyridin-5-yl)-1H-pyrazolo[3,4-b]pyrazin-6-yl)-7-(2-fluorophenyl)-3-azabicyclo[4.1.0]heptan-7-yl)methanamine], the pIC50 was above 6.30 in assay [1] and above 6.00 in assay [2] (Homo sapiens, KYSE-520, 2 h).
The corresponding values for `Cc1csc([C@@]2(CN)[C@@H]3CCN(c4cnc5c(-c6ccn7nccc7c6Cl)n[nH]c5n4)C[C@@H]32)n1` [Example 439, ((1S,6R,7S)-3-(3-(4-chloropyrazolo[1,5-a]pyridin-5-yl)-1H-pyrazolo[3,4-b]pyrazin-6-yl)-7-(4-methylthiazol-2-yl)-3-azabicyclo[4.1.0]heptan-7-yl)methanamine] are above 6.30 and above 6.00.
`COC(C)c1ccc(-c2n[nH]c3nc(N4CC[C@@H]5[C@H](C4)[C@@]5(CN)c4ccccc4F)cnc23)c2cccnc12` (stereo partly drawn) [Example 165, ((1S,6R,7R)-7-(2-fluorophenyl)-3-(3-(8-(1-methoxyethyl)quinolin-5-yl)-1H-pyrazolo[3,4-b]pyrazin-6-yl)-3-azabicyclo[4.1.0]heptan-7-yl)methanamine]: the pIC50 in assay [1] was above 6.30; in assay [2] (Homo sapiens, KYSE-520, 2 h), above 6.00.
The corresponding values for `NC[C@]1(c2ccccc2F)[C@@H]2CCN(c3cnc4c(-c5ccc6[nH]c(=O)ccc6c5)n[nH]c4n3)C[C@@H]21` [Example 234, 6-(6-((1S,6R,7R)-7-(aminomethyl)-7-(2-fluorophenyl)-3-azabicyclo[4.1.0]heptan-3-yl)-1H-pyrazolo[3,4-b]pyrazin-3-yl)quinolin-2(1H)-one] are above 6.30 and above 6.00.
Consider `NC[C@]1(c2ccccc2F)[C@@H]2CCN(c3ccc4nc(Sc5ccnc(N)c5Cl)cnc4n3)C[C@@H]21` [Example 385, 4-((6-((1S,6R,7R)-7-(aminomethyl)-7-(2-fluorophenyl)-3-azabicyclo[4.1.0]heptan-3-yl)pyrido[2,3-b]pyrazin-2-yl)thio)-3-chloropyridin-2-amine], for which the negative-log IC50 (pIC50) is above 6.30 in assay [1] and above 6.00 in assay [2] (Homo sapiens).
On to `NC[C@]1(c2ncccc2F)[C@@H]2CCN(c3cnc4c(-c5ccc(OC(F)(F)F)c6ncccc56)n[nH]c4n3)C[C@@H]21` [Example 144, ((1S,6R,7S)-7-(3-fluoropyridin-2-yl)-3-(3-(8-(trifluoromethoxy)quinolin-5-yl)-1H-pyrazolo[3,4-b]pyrazin-6-yl)-3-azabicyclo[4.1.0]heptan-7-yl)methanamine], for which the pIC50 in assay [1] is above 6.30; in assay [2] (Homo sapiens, KYSE-520, 2 h), above 6.00.
In the case of `Cc1csc(C2(CN)C3CCN(c4cnc5c(-c6cccc7ccccc67)n[nH]c5n4)CC32)n1` (stereo not shown) [Example 89, (7-(4-methylthiazol-2-yl)-3-(3-(naphthalen-1-yl)-1H-pyrazolo[3,4-b]pyrazin-6-yl)-3-azabicyclo[4.1.0]heptan-7-yl)methanamine], the pIC50 in assay [1] is above 6.30; in assay [2] (Homo sapiens, KYSE-520, 2 h), above 6.00.
The corresponding values for `NC[C@]1(c2ccccc2F)[C@@H]2CCN(c3cnc4c(-c5nccc6ncccc56)n[nH]c4n3)C[C@@H]21` [Example 153, ((1S,6R,7R)-3-(3-(1,6-naphthyridin-5-yl)-1H-pyrazolo[3,4-b]pyrazin-6-yl)-7-(2-fluorophenyl)-3-azabicyclo[4.1.0]heptan-7-yl)methanamine] are above 6.30 and above 6.00.
In the same order, the values of `CN1C(=O)Cc2cc(-c3n[nH]c4nc(N5CC[C@@H]6[C@H](C5)[C@@]6(CN)c5ccccc5F)cnc34)ccc21` [Example 217, 5-(6-((1S,6R,7R)-7-(aminomethyl)-7-(2-fluorophenyl)-3-azabicyclo[4.1.0]heptan-3-yl)-1H-pyrazolo[3,4-b]pyrazin-3-yl)-1-methylindolin-2-one] are above 6.30 and above 6.00.
In the same order, the values of `COc1cc(-c2ccc3nc(N4CC[C@@H]5[C@H](C4)[C@@]5(CN)c4ccccc4F)cnc3n2)cc2cccnc12` [Example 435, ((1S,6R,7R)-7-(2-fluorophenyl)-3-(6-(8-methoxyquinolin-6-yl)pyrido[2,3-b]pyrazin-2-yl)-3-azabicyclo[4.1.0]heptan-7-yl)methanamine] are above 6.30 and above 6.00.
For `Cc1csc([C@@]2(CN)[C@@H]3CN(c4cnc5c(-c6ccnc7c(F)cccc67)n[nH]c5n4)C[C@@H]32)n1` [Example 459], the pIC50 in assay [1] is above 6.30; in assay [2], above 6.00.
Regarding `Cn1ccc([C@@]2(CN)[C@@H]3CN(c4cnc5c(-c6ccc7nccnc7c6Cl)n[nH]c5n4)C[C@@H]32)n1` [Example 511, ((1R,5S,6r)-3-(3-(5-chloroquinoxalin-6-yl)-1H-pyrazolo[3,4-b]pyrazin-6-yl)-6-(1-methyl-1H-pyrazol-3-yl)-3-azabicyclo[3.1.0]hexan-6-yl)methanamine], the pIC50 in assay [1] was above 6.30; in assay [2] (Homo sapiens, KYSE-520, 2 h), above 6.00.
